# Results as given in article PMC6386991 (International Journal of Molecular Sciences, 2019).
# Like-named read-outs stand apart in the source and are kept apart here.
# Columns and labels:
# [1] = target: T1, equine serum BuChE (EqBuChE) (Equus caballus, UniProt P81908); assay: biochemical; conditions: read-out: BuChE IC50 ± SD
# T1 construct: equine serum BuChE (EqBuChE); from tissue; host or cells: equine serum
# [2] = tested on: SH-SY5Y cells; assay: Neuroprotection against rotenone/oligomycin A, co-incubation, MTT; conditions: R/O mixture
# [3] = LogP assay (HPLC, calibration curve); assay type: physicochemical; conditions: reversed-phase HPLC, Waters Xbridge C18 column; Experimental
# Procedure: After pKa assay we decided to use TEA because of the best properties for the assay. Coefficient of determination was over 0.96 for calibration curve (Figure 3). […] LogP values calculated by ChemAxon nad ACD/Percepta software were inflated in comparison to our experimental result (Table 3).
# Methanol (POCH) was used as an organic modifier. Demineralized water was purified in our faculty. Triethylamine (TEA) (Sigma Aldrich) was dissolved in concentration 30 mM in methanol and in water. Ten various isocratic mobile phases were used in calibration and assay. The first mobile phase contained 50% methanol solution with 30 mM TEA and 50% water solution with 30 mM TEA. Each next mobile phase contained 5% more methanol solution; 95% methanol solution and 5% water solution mix was used as the last mobile phase; 30 mM triethylamine in all mobile phases allowed us to analyzed basic substances. Basic solutions were used, because a neutral form of the compounds was required in logP assay. […]
# The test compound was eluted by all mobile phases and obtained retention times were used to calculate logkw value. LogP value was read from calibration curve. Obtained value was compared with calculated values by online software chemicalize.com (ChemAxon 2018) and ACD/Percepta Version 14.0.0 (Advanced Chemistry Development, Inc., Metropolitan Toronto, ON, Canada).
# [4] = in vitro
# [5] = tested on: SH-SY5Y cells; assay: Neuroprotection against rotenone/oligomycin A, pre-incubation, MTT; conditions: R/O mixture, compound 0.0001 µM
# [6] = ABTS radical scavenging assay; conditions: read-out: ABTS FRS50 ± SD
# [7] = DPPH free-radical scavenging assay; conditions: read-out: DPPH FRS50 ± SD
# [8] = tested on: SH-SY5Y cells; assay: Neuroprotection against oxidative stress, H2O2, MTT
# [9] = target: EeAChE (Electrophorus electricus, UniProt O42275); assay: Kinetic characterization of AChE inhibition (Lineweaver–Burk plot); assay type: biochemical, electric eel; conditions: Km and Vmax
# Procedure: To obtain the mechanism of EeAChE inhibition, kinetic experiments were performed.
# Kinetic characterization of AChE and BuChE was performed using the reported method with different concentrations of the substrate (S)—acetylthiocholine iodide (in range of […]) prepared in phosphate buffer (pH 8.0). […] Then, the inhibitor (14 µL) was added into the assay solution. Kinetic characterizations of the hydrolysis of acetylthiocholine […] catalyzed by AChE were done spectrophotometrically at 412 nm. A parallel control with no inhibitor in the mixture, allowed adjusting activities to be measured at various times.
# [10] = target: Aβ (1–42) (Homo sapiens, UniProt P05067); assay: Self-induced Aβ(1–42) aggregation, Thioflavin T assay; assay type: biochemical
# From the text: Aβ(1–42) is the most amyloidogenic Aβ fragment found in the AD plaques.
# Amyloid β aggregation plays a definitive role in neurodegeneration and AD progression. Thus, inhibition of the Aβ aggregation has been presented as a promising approach for the AD therapy. In order to examine the ability to inhibit Aβ aggregation spectroscopic technique which is analyse with thioflavin T have been used. We investigated the best potent inhibitor towards AChE. […] As well as the study being conducted without the presence of the inhibitor. Aβ42 was dissolved in DMSO to make 125.8 µM stock solution. Each compound (10 µL) and 10 µL of Aβ42 were added into 60 µL of phosphate buffer (PBS at pH 8.0) in a 96-well plate. After shake and incubation for 24 h at 30 °C, 20 µL of 2.5 µM ThT solution in 50 mM glycine–NaOH (pH 8.5) was added. Fluorescence excitation was measured at 446 nm with emission a wavelength of 490 nm after 5 min incubation with the dye. The reported results were obtained as the mean ± SD of triplicates of three independent experiments. […]
# [11] = In vitro cytotoxicity assay (MTT) on CCL-110; conditions: human, CCL-110 cells (normal human skin fibroblasts)
# Procedure: Cytotoxicity assay was performed on CCL-110 cell line (normal, human fibroblasts derived from skin). Test over a wide range of concentrations (including the concentrations close to the IC50 of enzymatic inhibition results) was performed.
# [12] = target: AChE-BACE-1A protein pair (Homo sapiens, UniProt P22303+P56817); assay: Yeast three-hybrid (Y3H) test, AChE-BACE-1A; conditions: 10 µM hybrid ligand, DDO/X/A agar plates
# [13] = pKa assay (UV spectra in buffers pH 5.6 to 12.4); assay type: physicochemical; conditions: phosphate buffers in methanol:water (1:1), pH 5.6 to 12.4, Experimental
# From the text: LogP is one of properties used in Lipinski’s rule of five. Our compounds were designed as a potential drug in AD therapy. Fulfillment of Lipinski’s rule of five allows us to suppose that the compound will show adequate pharmacokinetics. […] In the chemical structure of our compound occur four nitrogen atoms with a free ion pair, which allow us to gradually ionize the whole compound at different pH value. […] Direct determination of the ratio between consecutive form of molecule allows to measure the pKa value (Figure 2). The change of distribution charge in molecule affects noticeably the change of the ultraviolet (UV) spectra. […] We used absorbance ratios and mathematical calculation allowed to estimate specific pH value for each ionized form and finally to calculate pKa values (Figure 3). The value pKa1 calculated by ChemAxon and ACD/Percepta software are close to value pKa1 obtained by our method. pKa2 value calculated by ChemAxon software and pKa2 calculated by ACD/Percepta were inflated in comparison with our experimental result pKa2 (Table 3). […]
# Spectrophotometric measurement was performed in 96 wells plate by using Synergy H1 microplate reader (BioTek, Vinoosky, VT, USA) with Gen5 software (BioTek). […] Further calculations on UV spectra were performed by using mathematical ratios of absorbance 332/343 nm and 343/332 nm and according to methodology developed by Musil et al.. […]
# [14] = Homo sapiens, SH-SY5Y, read-out: % cell viability
# Sequence of Aβ (1–42) (P05067 672-713 limits assumed): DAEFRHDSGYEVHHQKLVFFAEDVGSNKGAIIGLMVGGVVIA
# T1 sequence (P81908 whole entry): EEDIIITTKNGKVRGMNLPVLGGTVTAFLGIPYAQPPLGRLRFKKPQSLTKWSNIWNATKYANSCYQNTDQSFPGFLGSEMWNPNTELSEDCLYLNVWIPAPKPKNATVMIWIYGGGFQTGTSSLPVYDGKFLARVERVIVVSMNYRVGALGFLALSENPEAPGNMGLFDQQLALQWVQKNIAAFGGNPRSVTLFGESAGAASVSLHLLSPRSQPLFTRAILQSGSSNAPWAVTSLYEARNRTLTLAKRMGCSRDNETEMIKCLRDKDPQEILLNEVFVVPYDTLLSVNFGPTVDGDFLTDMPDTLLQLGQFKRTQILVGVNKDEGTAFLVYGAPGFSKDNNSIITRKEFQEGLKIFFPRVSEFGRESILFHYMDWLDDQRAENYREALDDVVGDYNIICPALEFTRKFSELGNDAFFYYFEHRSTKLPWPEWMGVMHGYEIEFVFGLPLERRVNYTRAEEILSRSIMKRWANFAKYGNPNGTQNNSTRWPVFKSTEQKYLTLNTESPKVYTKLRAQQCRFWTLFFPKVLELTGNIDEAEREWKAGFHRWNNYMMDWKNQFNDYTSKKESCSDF
# Sequence of EeAChE (O42275 24-633): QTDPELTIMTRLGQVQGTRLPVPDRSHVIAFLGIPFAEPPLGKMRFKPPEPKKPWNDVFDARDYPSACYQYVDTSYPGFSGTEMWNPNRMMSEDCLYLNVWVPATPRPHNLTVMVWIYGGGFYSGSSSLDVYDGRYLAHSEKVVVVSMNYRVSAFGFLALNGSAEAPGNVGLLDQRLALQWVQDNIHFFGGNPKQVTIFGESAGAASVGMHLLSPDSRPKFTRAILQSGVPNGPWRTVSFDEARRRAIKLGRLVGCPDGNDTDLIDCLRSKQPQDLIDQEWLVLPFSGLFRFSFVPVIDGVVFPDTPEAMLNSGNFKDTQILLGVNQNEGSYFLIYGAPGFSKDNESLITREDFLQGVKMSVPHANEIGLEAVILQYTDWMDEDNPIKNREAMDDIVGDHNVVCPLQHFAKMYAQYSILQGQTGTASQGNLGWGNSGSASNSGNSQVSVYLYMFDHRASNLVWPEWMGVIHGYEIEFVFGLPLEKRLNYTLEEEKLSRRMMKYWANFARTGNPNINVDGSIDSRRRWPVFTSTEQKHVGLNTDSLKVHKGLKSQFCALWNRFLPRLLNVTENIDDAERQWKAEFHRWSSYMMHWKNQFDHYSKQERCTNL
# Sequence of AChE-BACE-1A protein pair (P22303 52-577): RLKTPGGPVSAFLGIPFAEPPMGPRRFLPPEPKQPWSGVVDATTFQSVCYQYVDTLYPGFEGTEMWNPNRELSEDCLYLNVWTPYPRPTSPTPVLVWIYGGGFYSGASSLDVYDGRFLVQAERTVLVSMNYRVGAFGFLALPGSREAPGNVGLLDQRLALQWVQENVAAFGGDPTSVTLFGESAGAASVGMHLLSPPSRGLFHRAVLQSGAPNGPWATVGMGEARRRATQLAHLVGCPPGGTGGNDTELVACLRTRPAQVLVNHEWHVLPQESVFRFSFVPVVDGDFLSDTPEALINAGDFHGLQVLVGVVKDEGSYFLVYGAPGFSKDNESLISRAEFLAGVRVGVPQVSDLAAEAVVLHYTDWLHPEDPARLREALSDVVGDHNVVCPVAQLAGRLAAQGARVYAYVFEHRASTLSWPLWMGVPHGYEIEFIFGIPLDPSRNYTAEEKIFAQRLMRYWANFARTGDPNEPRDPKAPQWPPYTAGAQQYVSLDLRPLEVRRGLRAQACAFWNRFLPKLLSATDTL
# Sequence of AChE-BACE-1A protein pair (P56817 46-457): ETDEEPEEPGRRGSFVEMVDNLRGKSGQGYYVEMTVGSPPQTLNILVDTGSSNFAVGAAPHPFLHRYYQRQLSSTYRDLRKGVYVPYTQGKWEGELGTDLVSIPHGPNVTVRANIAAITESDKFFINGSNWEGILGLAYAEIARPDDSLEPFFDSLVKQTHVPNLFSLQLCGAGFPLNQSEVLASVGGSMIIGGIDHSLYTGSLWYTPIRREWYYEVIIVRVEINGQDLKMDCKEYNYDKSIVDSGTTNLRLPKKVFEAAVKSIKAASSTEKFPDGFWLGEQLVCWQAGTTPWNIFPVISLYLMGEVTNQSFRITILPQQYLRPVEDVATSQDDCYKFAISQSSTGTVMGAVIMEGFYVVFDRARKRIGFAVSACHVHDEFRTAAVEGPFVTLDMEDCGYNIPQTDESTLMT
structure (smiles),measurement,setting,value
O=C(NCCCCCCNc1c2c(nc3ccccc13)CCC2)c1ccc(Cl)nc1 [Compound 3e],IC50,[1],0.153 ± 0.02 µM
same,neuroprotective properties (in words),[2],did not have neuroprotective properties at any concentrations
same,chromatographic logP,[3],3.99
same,"viability at 24 h, 0.1 µM",[4],100%
same,"viability at 24 h, 1 µM",[4],99.7%
same,"viability at 24 h, 10 µM",[4],93%
same,neuroprotection,[5],3.98%
same,EC50,[6],> 20000 µM
same,EC50,[7],> 20000 µM
same,neuroprotective activity (in words),"[8]; H2O2 100 µM, compound 10–0.01 µM","at none concentration, 3e had neuroprotective activity"
same,viability at 0.01 µM,[8]; [14],60.4%
same,viability at 0.1 µM,[8]; [14],29.2%
same,viability at 1 µM,[8]; [14],18.4%
same,viability at 10 µM,[8]; [14],14.3%
same,type of EeAChE inhibition,[9],mixed inhibition
same,IC50,[10],15 ± 0.6 µM
same,inhibition at 10 µM,[10]; 10 µM compound,40 ± 4.8%
same,inhibition at 25 µM,[10]; 25 µM compound,63 ± 4.2%
same,inhibition at 50 µM,[10]; 50 µM compound,72 ± 2.9%
same,inhibition at 100 µM,[10]; 100 µM compound,79 ± 3.2%
same,IC50 at 48 h,[11],0.638 µM
same,hybrid ligand-induced interaction AChE-BACE-1A,[12],"Blue colonies, indicating putative interaction"
same,pKa,[13]; read-out: pKa1,8.53
same,pKa,[13]; read-out: pKa2,11.3
